{"source": "paper PMC9609767", "about": "“Radiosynthesis and Preclinical Evaluation of an ^18F-Labeled Triazolopyridopyrazine-Based Inhibitor for Neuroimaging of the Phosphodiesterase 2A (PDE2A)” (Pharmaceuticals, 2022)", "key": {"rat PDE2A": {"molecular_target": "T1, rat PDE2A (Rattus norvegicus, UniProt Q01062)", "T1 construct": "Frozen sagittal 12 µm brain sections obtained from female SPRD and male Wistar-Han rats; from tissue; host or cells: rat brain cryosections (female SPRD and male Wistar-Han rats)", "T1 sequence (Q01062 1-928)": "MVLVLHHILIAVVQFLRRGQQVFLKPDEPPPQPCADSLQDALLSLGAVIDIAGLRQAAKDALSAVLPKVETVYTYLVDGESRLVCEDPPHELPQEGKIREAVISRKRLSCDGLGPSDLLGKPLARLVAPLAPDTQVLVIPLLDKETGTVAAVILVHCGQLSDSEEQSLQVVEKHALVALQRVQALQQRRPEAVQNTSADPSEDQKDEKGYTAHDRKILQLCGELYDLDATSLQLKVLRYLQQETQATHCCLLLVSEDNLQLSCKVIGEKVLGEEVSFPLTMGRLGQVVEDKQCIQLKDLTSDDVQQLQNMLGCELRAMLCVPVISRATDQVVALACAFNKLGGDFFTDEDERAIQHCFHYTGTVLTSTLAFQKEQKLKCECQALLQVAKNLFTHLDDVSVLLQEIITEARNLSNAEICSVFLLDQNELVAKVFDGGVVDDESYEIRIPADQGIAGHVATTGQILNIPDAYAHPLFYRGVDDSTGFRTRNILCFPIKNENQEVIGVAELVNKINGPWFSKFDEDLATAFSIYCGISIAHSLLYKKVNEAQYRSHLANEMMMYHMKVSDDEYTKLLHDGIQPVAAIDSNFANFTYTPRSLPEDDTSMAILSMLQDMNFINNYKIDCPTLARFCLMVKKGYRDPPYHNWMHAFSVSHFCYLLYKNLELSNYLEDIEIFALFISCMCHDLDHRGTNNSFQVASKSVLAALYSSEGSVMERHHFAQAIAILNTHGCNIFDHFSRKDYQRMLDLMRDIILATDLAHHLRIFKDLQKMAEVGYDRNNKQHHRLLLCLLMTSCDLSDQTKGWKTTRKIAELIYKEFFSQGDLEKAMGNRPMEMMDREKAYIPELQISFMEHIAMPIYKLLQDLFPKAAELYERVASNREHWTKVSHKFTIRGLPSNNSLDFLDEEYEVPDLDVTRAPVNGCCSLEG", "test": "In vitro autoradiography with rat brain cryosections", "assay_type": "binding", "conditions": "for Kd: read-out: apparent KD", "description": "Frozen sagittal 12 µm brain sections obtained from female SPRD and male Wistar-Han rats (10–12 weeks old) were thawed, dried in a stream of cold air, and pre-incubated for 15 min with incubation buffer (50 mM TRIS-HCl, pH 7.4; supplemented with 1 mM MgCl2, 1 mM CaCl2, 2 mM KCl, and 2 U/mL Adenosine deaminase) at ambient temperature. Afterwards, the buffer was decanted and the cryosections dried again in a stream of cold air before covering with the radioligand in incubation buffer (~0.1 MBq [^18F]11/mL; Am at the time of the incubation ~10 GBq/µmol) for incubation at ambient temperature for 90 min.\nThe incubation was terminated by pouring off the incubation solution and washing the slides twice with ice-cold buffer (50 mM TRIS-HCl, pH 7.4/4 °C) for 2 min and rinsing by dipping in ice-cold demineralised water. Immediately afterwards, the sections were dried in a stream of cold air and exposed along with appropriate radioactive standards (1 µL of serial dilutions of the radioligand in incubation buffer, pipetted on a microscopic glass slide and air dried) to an ^18F-sensitive image plate for 120 min. Finally, the imaging plate was scanned at the highest possible resolution (pixel size 12.6 µm × 12.6 µm) in a phosphor imager (HD-CR 35; Duerr NDT GmbH, Bietigheim Bissingen, Germany) and the digital image analysed with an image analysis program (Aida Image Analyzer v. 4.26; Elysia-raytest GmbH, Straubenhardt, Germany).\nFor the determination of the protein concentration, four dried 12 µm cryosections were scraped from the microscopic glass slides, transferred in an Eppendorf tube and solubilised with 200 µL of demineralised water. The protein concentration of this solution was determined by a commercial assay (Pierce™ BCA Protein Assay Kit, Thermo Fisher Scientific, Schwerte, Germany). The area of the cryosections was determined during the analysis of the digitized autoradiographic images, and the volume was calculated by multiplying the area with the thickness of the slices. Finally, the protein concentration of the tissue was calculated (37 mg protein/g wet weight)."}, "[1]": {"test": "In vivo metabolism in CD-1 mice (radio-HPLC of plasma and brain)", "conditions": "mouse", "description": "Two non-anesthetized female CD-1 mice (30 and 33 g, 90 days) were injected intravenously with [^18F]11 (28 MBq = 94 nmol/kg and 25 MBq = 78 nmol/kg). The animals were anesthetized by isoflurane inhalation at 28 min p.i. and blood was collected from the retro-orbital plexus, followed by cervical dislocation at 30 min p.i. Immediately afterwards, the brains were isolated, washed twice with isotonic saline and stored on ice. Plasma was obtained from the whole blood sample by centrifugation (8.000 rpm, 2 min, ambient temperature). All samples were weighed and the radioactivity was measured in a dose calibrator (ISOMED 2010 Dose Calibrator, NUVIA Instruments GmbH, Dresden, Germany). Afterwards, the brains were homogenized in 1 mL demineralized water on ice (Potter S, B. Braun Biotech, Melsungen, Germany).\nProtein precipitation was performed by the addition of ice-cold ACN/H2O (9:1, v/v) in a ratio of 4:1 (v/v) of organic solvent to plasma or brain homogenate, respectively. The samples were vortexed for 3 min, equilibrated on ice for 3 min, and centrifuged for 10 min at 10,000 rpm and the supernatant collected. The precipitates were washed with 100 μL of the solvent mixture and subjected to the same procedure. The combined supernatants were concentrated at 70 °C under argon flow to a final volume of approximately 100 μL and analysed by analytical radio-HPLC with a gradient system (see radiochemistry general section). The peak corresponding to the radiotracer in the radio-chromatogram was identified by co-injecting the sample with the reference compound 11. To determine the percentage of activity in the supernatants compared to total activity, aliquots of each step as well as the precipitates were quantified by an automated gamma counter (1480 WIZARD, Perkin Elmer, Turku, Finland). For plasma and brain samples recoveries of ≥91% of total activity were obtained."}, "[2]": {"conditions": "caudate putamen, female SPRD rat"}, "[3]": {"conditions": "caudate putamen, male Wistar-Han rat"}, "[4]": {"conditions": "30 min p.i., i.v., n = 2 (individual values)"}}, "note": "Values joined by “and” are separate entries in the source; they are usually repeats but may differ in a detail not shown here. Identical values can stand only once. Like-named read-outs stand apart in the source and are kept apart here.", "data": [{"compound": "CCCC(O)c1ccc([18F])c(-c2nnc3c(C)nc4ccc(C5CC5)nc4n23)c1", "note": "(stereo not shown) [[^18F]11]", "values": [{"measurement": "Kd", "setting": "rat PDE2A; caudate nucleus and putamen, homologous competition, overall value (SPRD and Wistar)", "value": "~0.2 nM and 0.24 nM"}, {"measurement": "apparent Bmax", "setting": "rat PDE2A; caudate nucleus and putamen, overall value (SPRD and Wistar)", "value": "~20 pmol/mg protein and 16 pmol/mg protein"}, {"measurement": "apparent Bmax", "setting": "rat PDE2A; [2]", "value": 14, "unit": "pmol/mg protein"}, {"measurement": "Kd", "setting": "rat PDE2A; [2]", "value": 0.38, "unit": "nM"}, {"measurement": "apparent Bmax", "setting": "rat PDE2A; [3]", "value": 18, "unit": "pmol/mg protein"}, {"measurement": "Kd", "setting": "rat PDE2A; [3]", "value": 0.1, "unit": "nM"}, {"measurement": "caudate putamen-to-cerebellum ratio", "setting": "rat PDE2A; in vitro autoradiography, equilibrium conditions", "value": "about 2"}, {"measurement": "fraction of non-metabolized radiotracer in brain", "setting": "[1]; [4]", "value": "42/50"}, {"measurement": "fraction of non-metabolized radiotracer in plasma", "setting": "[1]; [4]", "value": "about 7/11"}, {"measurement": "radiometabolites in the brain (% of the activity)", "setting": "[1]; 30 min post injection", "value": "~ 50%"}]}]}
